The text below walks through data of ChEMBL document CHEMBL4725290, “Synthesis of 2-guanidinyl pyridines and their trypsin inhibition and docking” (Bioorg Med Chem, 2020).

Data set [1] in a line: Competitive inhibition of bovine pancreas trypsin assessed as release of para-nitroaniline using L-BAPA as substrate in presence of 4-nitrophenyl 4-guanidinobenzoate hydrochloride as inhibitor at pH 7.2 at 25 degC. Details: species or system Bos taurus.
The species entered for data set [2] is Bos taurus. Description: Competitive inhibition of bovine pancreas trypsin assessed as release of para-nitroaniline using L-BAPA as substrate at pH 7.2 in absence of inhibitor at 25 degC.
A short description of data set [3]: Competitive inhibition of bovine trypsin using Z-Arg-SBzl as substrate at pH 7.5 at 25 degC. Set-up: species or system Bos taurus.
The nature of data set [4]: Stability of the compound assessed as bovine trypsin-mediated hydrolysis for 6 days by NMR spectroscopy. The format is ADME, Bos taurus. To be noted: cattle, isolated protein, 144 h; time 6 day.

For the compound `CN(C)/C=N/c1ccc(Br)cn1`, the Ki in data set [1] was more than 17200 µM.
With `Cc1ccc(NC(=N)N)nc1`, the Ki in data set [1] is 104 µM.
For the compound `N=C(N)Nc1ccc(Br)cn1`, the Ki in data set [1] was 20.5 µM. Also, in data set [2], the V0 was 3.85 10^-8M/s.
Regarding `CC(=O)c1ccc(NC(=N)N)nc1`, the Ki in data set [1] is 5040 µM.
As to `N=C(N)Nc1ccncn1`, in data set [1], the Ki is 514 µM.
Take `Cc1cccc(NC(=N)N)n1`: the Ki in data set [1] came to 91.3 µM.
Regarding `N=C(N)c1ccccc1` [BENZAMIDINE], in data set [3], the Ki came out at 35 µM.
Take `N=C(N)Nc1cccnc1`: the Ki in data set [1] came out at 950 µM.
Take `N=C(N)Nc1ccc(F)cn1`: the Ki in data set [1] amounted to 144 µM. Moreover, the V0 in data set [2] was 3.79 10^-8M/s.
For `N=C(N)Nc1ccc(C(F)(F)F)cn1`, the Ki in data set [1] was 218 µM. Further, in data set [2], the V0 was 10.3 10^-8M/s.
Take `Cc1ccnc(NC(=N)N)c1`: in data set [1], the Ki is 119 µM.
As to `COC(=O)c1ccc(NC(=N)N)nc1.O=C(O)C(F)(F)F`, the Stabilty result in data set [4] is “Stable”. For the same compound, the Ki in data set [1] was determined as 1080 µM.
Consider `N=C(N)Nc1ccccn1`, for which the Ki in data set [1] came out at 83.2 µM. In addition, the V0 in data set [2] is 8.09 10^-8M/s.
Regarding `N=C(N)Nc1ccc(-c2ccccc2)cn1`, the Ki in data set [1] was 955 µM.
For `N=C(N)Nc1ccc(C=O)cn1`, in data set [1], the Ki turned out to be 289 µM.
Regarding `N=C(N)Nc1ccc(I)cn1`, the Ki in data set [1] was 15.1 µM. Further, in data set [2], the V0 was 4.4 10^-8M/s.
Turning to `N=C(N)Nc1ccc(Cl)cc1`, in data set [1], the Ki was 127 µM.
Regarding `Cc1cccnc1NC(=N)N`, the inhibition constant (Ki) in data set [1] is 14 µM.
As to `CON(C)C(=O)c1ccc(NC(=N)N)nc1`, the Ki in data set [1] was 2550 µM.
For `N=C(N)Nc1ccc(Cl)cn1`, the Ki in data set [1] was 34.7 µM. Further, the V0 in data set [2] was 8.26 10^-8M/s.
